The source made the active and inactive calls. No cut-off for these calls is given here.
What was measured:
[1] = target: Luciferin 4-monooxygenase (Photinus pyralis) (UniProt P08659); test: Noncompetitive inhibition of recombinant firefly luciferase using luciferin as substrate at 1 to 100 nM after 30 min by Michaelis-Menten plot analysis
[2] = target: T1, Coelenterazine h 2-monooxygenase (Renilla reniformis) (UniProt P27652); test: Inhibition of sea pansy luciferase after 20 mins by luminescence assay
T1 sequence (whole entry): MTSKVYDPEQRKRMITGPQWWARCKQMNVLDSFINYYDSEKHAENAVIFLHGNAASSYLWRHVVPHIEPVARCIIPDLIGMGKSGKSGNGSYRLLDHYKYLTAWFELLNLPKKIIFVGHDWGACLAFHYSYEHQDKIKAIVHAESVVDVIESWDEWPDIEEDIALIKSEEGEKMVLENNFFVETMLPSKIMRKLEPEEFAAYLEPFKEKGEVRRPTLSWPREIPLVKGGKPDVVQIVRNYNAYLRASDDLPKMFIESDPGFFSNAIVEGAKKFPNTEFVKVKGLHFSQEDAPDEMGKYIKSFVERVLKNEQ

[3] = target: Luciferin 4-monooxygenase (Photinus pyralis) (UniProt P08659); test: Reversible inhibition of recombinant firefly luciferase incubated for 30 mins measured post compound wash-out by luminescence assay
[4] = target: Luciferin 4-monooxygenase (Photinus pyralis) (UniProt P08659); test: Inhibition of recombinant firefly luciferase at 10 uM after 20 mins by luminescence assay
[5] = target: Luciferin 4-monooxygenase (Photinus pyralis) (UniProt P08659); test: Inhibition of recombinant firefly luciferase activity expressed in U87 cells at 10 uM after 2 mins; assay type: cell-based; details: U-87MG ATCC
[6] = target: Luciferin 4-monooxygenase (Photinus pyralis) (UniProt P08659); test: Noncompetitive inhibition of recombinant firefly luciferase using ATP as substrate at 1 to 100 nM after 30 mins by Michaelis-Menten plot analysis
[7] = target: Luciferin 4-monooxygenase (Photinus pyralis, UniProt P08659); test: Inhibition of recombinant firefly luciferase after 20 mins by luminescence assay
[8] = target: Luciferin 4-monooxygenase (Photinus pyralis) (UniProt P08659); test: Inhibition of recombinant firefly luciferase at 1 nM after 20 mins by luminescence assay
[9] = Cytotoxicity against human U87 cells assessed as cell viability at 10 uM after 6 hrs by propidium iodide staining-based fluorescence assay; details: u-87mg atcc
[10] = target: Luciferin 4-monooxygenase (Photinus pyralis) (UniProt P08659); test: Inhibition of recombinant firefly luciferase activity expressed in U87 cells at 10 uM after 48 hrs; assay type: cell-based; details: U-87MG ATCC

Sequence of Luciferin 4-monooxygenase (Photinus pyralis) (P08659 whole entry): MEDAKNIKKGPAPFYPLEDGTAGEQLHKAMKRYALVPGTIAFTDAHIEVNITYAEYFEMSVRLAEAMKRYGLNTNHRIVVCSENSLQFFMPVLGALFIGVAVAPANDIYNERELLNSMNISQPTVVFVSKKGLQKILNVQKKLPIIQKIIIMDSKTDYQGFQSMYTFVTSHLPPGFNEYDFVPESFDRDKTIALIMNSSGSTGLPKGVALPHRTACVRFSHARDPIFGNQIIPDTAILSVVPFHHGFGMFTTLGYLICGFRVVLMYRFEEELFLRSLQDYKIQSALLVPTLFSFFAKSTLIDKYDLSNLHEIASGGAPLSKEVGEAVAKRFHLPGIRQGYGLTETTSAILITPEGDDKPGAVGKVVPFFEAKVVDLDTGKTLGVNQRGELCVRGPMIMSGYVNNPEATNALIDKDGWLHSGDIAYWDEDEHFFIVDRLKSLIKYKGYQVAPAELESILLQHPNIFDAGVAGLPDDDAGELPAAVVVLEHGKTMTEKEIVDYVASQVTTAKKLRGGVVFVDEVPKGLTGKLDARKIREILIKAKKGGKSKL
Sequence of Luciferin 4-monooxygenase (P08659 whole entry): as above

- inhibition [1]: Active
- inhibition [2]: inactive
- inhibition [3]: Active
- inhibition [4]: 99.8%
- inhibition [5]: Active
- inhibition [6]: Active
- IC50 [7]: 0.257 nM
- inhibition [8]: 72.8%
- inhibition [10]: Active
SMILES: Clc1ccc(C2=NO[C@H](Cc3ccccc3)C2)cc1
- Activity [9]: Non-toxic

Source: ChEMBL document CHEMBL2321784, “Discovery of 5-benzyl-3-phenyl-4,5-dihydroisoxazoles and 5-benzyl-3-phenyl-1,4,2-dioxazoles as potent firefly luciferase inhibitors” (J Med Chem, 2013)
